The record followed here is ChEMBL document CHEMBL1127199, “Design of C-terminal peptide antagonists of endothelin: structure-activity relationships of ET-[1621, D-His16]” (Bioorg Med Chem Lett, 1993).

Where a SMILES comes first, the peptide text is derived from it. [ ]: non-standard residue; d: D form.

Test [1] concerns the target T1, Endothelin receptor type B (Rattus norvegicus, UniProt P21451).
T1 sequence (P21451 whole entry): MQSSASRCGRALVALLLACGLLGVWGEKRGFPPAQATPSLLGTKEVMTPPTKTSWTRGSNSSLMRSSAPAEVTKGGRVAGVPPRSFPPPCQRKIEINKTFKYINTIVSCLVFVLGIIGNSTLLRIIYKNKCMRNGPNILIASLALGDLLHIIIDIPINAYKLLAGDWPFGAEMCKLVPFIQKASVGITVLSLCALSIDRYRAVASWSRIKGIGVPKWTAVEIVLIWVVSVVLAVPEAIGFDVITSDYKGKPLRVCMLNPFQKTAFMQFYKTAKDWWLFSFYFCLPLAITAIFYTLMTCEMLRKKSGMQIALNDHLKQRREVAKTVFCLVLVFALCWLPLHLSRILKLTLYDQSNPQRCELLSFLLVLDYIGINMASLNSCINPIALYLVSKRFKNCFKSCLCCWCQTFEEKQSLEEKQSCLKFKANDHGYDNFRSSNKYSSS
The test is described as follows: Displacement of [125I]ET1 from Endothelin B receptor of rat cerebellum. It counts as tissue-based. (In general: Displacement assays read how much labelled ligand stays bound in the presence of the test substance.)

Test [2] has as its target Endothelin A receptor (Oryctolagus cuniculus). The test is described as follows: Displacement of [125I]-ET-1 from Endothelin A receptor of rabbit renal artery vascular smooth muscle cells.
The species entered for the next test is Oryctolagus cuniculus. The experiment in a line: Compound was tested for its inhibition of ET-1 induced arachidonic acid accumulation in rabbit renal artery vascular smooth muscle cells. It is filed as functional.

Take `CC[C@H](C)[C@H](NC(=O)[C@H](CC(=O)O)NC(=O)[C@H](CC(C)C)NC(=O)[C@H](Cc1c[nH]cn1)NC(C)=O)C(=O)N[C@H](C(=O)N[C@@H](Cc1c[nH]c2ccccc12)C(=O)O)[C@@H](C)CC` (Ac-HLDIIW-OH): the IC50 in test [1] was more than 50000 nM.
`CC[C@H](C)[C@H](NC(=O)[C@H](CC(=O)O)NC(=O)[C@@H](Cc1ccccc1)NC(C)=O)C(=O)N[C@H](C(=O)N[C@@H](Cc1c[nH]c2ccccc12)C(=O)O)[C@@H](C)CC` (Ac-[dF]DIIW-OH) registered an IC50 in test [2] of 9100 nM.
Regarding `CC[C@H](C)[C@H](NC(=O)[C@H](CC(=O)O)NC(=O)[C@H](CCC(=O)O)NC(=O)[C@@H](Cc1ccccc1)NC(C)=O)C(=O)N[C@H](C(=O)N[C@@H](Cc1c[nH]c2ccccc12)C(=O)O)[C@@H](C)CC` (Ac-[dF]EDIIW-OH), in the test filed under Oryctolagus cuniculus, the IC50 came to 600 nM.
With `CC[C@H](C)[C@H](NC(=O)[C@H](CC(=O)O)NC(=O)[C@H](Cc1ccccc1)NC(=O)[C@@H](Cc1ccccc1)NC(C)=O)C(=O)N[C@H](C(=O)N[C@@H](Cc1c[nH]c2ccccc12)C(=O)O)[C@@H](C)CC` (Ac-[dF]FDIIW-OH), the IC50 in test [1] was 50 nM.
As to `CC[C@H](C)[C@H](NC(=O)[C@H](CC(=O)O)NC(=O)[C@H](CC(C)C)NC(=O)[C@@H](Cc1ccccc1)NC(C)=O)C(=O)N[C@H](C(=O)N[C@@H](Cc1c[nH]c2ccccc12)C(=O)O)[C@@H](C)CC` (Ac-[dF]LDIIW-OH), the 50% inhibitory concentration (IC50) in test [1] is 140 nM.
Consider `CC[C@H](C)[C@H](NC(=O)[C@H](CC(=O)O)NC(=O)[C@@H](Cc1ccccc1)NC(=O)[C@@H](Cc1ccccc1)NC(C)=O)C(=O)N[C@H](C(=O)N[C@@H](Cc1c[nH]c2ccccc12)C(=O)O)[C@@H](C)CC` (Ac-[dF][dF]DIIW-OH), for which the IC50 in test [1] worked out at 30 nM; in the test filed under Oryctolagus cuniculus it was 1600 nM.

The IC50 is the midpoint of a concentration-inhibition curve. Higher therefore signals weaker potency.
